{"source": "patent US20220033448A1", "about": "“METHODS FOR AGGREGATION OF PROTEINS” (priority 2011, published 2022)", "key": {"β-Gal [1]": {"molecular_target": "T1, β-Gal (Escherichia coli, UniProt P00722)", "T1 sequence (P00722 2-1024 with the stated changes limits assumed)": "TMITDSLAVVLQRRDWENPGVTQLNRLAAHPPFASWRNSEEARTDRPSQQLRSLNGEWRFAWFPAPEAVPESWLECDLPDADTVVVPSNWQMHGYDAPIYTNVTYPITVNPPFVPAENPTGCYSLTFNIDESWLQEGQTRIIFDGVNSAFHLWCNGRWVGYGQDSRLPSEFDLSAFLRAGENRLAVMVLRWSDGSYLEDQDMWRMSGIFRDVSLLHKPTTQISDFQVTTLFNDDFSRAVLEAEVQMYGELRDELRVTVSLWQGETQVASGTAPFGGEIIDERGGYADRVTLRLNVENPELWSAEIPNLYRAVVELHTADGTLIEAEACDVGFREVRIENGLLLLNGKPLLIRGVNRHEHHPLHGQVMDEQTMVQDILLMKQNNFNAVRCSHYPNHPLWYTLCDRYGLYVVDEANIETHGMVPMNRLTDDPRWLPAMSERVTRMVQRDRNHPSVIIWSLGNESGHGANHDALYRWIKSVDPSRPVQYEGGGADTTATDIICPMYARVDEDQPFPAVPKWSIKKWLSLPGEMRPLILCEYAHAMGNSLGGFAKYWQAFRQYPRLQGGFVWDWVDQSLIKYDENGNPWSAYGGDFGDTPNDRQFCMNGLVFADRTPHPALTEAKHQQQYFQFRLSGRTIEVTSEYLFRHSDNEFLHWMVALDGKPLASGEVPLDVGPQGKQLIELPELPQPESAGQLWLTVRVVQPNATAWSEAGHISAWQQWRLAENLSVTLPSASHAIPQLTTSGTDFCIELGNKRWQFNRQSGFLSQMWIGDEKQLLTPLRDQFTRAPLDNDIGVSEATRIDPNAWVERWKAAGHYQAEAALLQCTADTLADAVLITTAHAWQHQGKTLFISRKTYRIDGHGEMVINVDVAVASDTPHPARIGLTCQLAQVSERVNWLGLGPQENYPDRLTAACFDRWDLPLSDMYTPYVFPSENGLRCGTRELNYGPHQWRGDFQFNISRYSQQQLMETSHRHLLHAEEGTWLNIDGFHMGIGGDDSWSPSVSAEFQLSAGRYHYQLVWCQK", "conditions": "3-state model; 25° C.; 0-4 μM peptide", "protocol": "In this in vitro experiment the affinity of different interferor peptides was measured for binding to β-gal by means of surface plasmon resonance (SPR). SPR experiments were performed at 25° C. using a Biacore T100 equipped with CM5 sensor chip (GE Healthcare.). Coupling reagents (N-ethyl-N′-(3-dimethylaminopropyl)carbodiimide (EDC), N-hydroxysuccinimide (NHS) and ethanolamine-HCI) were purchased from GE Healthcare. BSA and β-gal were purchased from Sigma-Aldrich and Roche Diagnostics, respectively. […] The proteins BSA and β-Gal were immobilized respectively, in the reference and sample channels on a CM5 sensor chip by standard amine coupling chemistry at a flow of 10 μl min^−1. The carboxymethyl dextran surface was activated by the injection of a 1:1 ratio of EDC and NHS for 7 minutes. The proteins were diluted in 10 mM sodium-acetate buffer, pH 4.5 to a final concentration of 0.2 mg m1^−1 and injected in short pulses over the activated surface until the immobilization levels reached 4000 RU or 8000 RU, for BSA and β-Gal, respectively. The remaining reactive groups were blocked with 1 M ethanolamine, pH 8. After completion of coupling, the surface was regenerated with short pulses of 50 mM NaOH and 8 M urea to remove non-covalently attached proteins. […] The peptides, dissolved in the running buffer (10 mM sodium phosphate, pH 6.8, 150 mM NaCI, 3 mM EDTA and 0.015% Tween 20) at a concentration of 1 μM, were injected for 60 s at a flow rate of 30 μl min^−1 and then allowed to dissociate for 600 s. The injection was repeated on the same surface as well as on independently immobilized surfaces. The surface was regenerated between each cycle by 30 s pulses of i) 50 mM NaOH, and ii) 8 M urea, and was allowed to stabilize for 400 s before the next cycle.\nThe peptide dissolved in the running buffer was injected for 60 s at a flow-rate of 301.11min′ over the reference (BSA) and sample (β-Gal) surfaces in a range of concentrations (0-4 μM, with one internal replicate) and were then allowed to dissociate for 600 s. The concentration series were repeated on the same surface (three times) as well as on independently immobilized surfaces. The surface was regenerated between each cycle by 30 s pulses of i) 50 mM NaOH, and ii) 8 M urea, and was allowed to stabilize for 400 s before the next cycle.\nThe data were globally fitted to a three-state model, using the Biacore T100 software, assuming an initial encounter between the peptide in solution and the protein on the chip followed by a two-step rearrangement before an identical binding site becomes available at the growing β-sheet."}, "β-Gal [2]": {"molecular_target": "T1, β-Gal", "conditions": "equimolar concentrations of enzyme and interferor (10 μM)", "method": "Enzyme functional readout was performed using the substrate fluorescein-di-I3-D-galactopyranoside (FDG), which is non-fluorescent but on enzymatic cleavage by β-Gal fluorescent fluorescein is liberated with intensity proportional to the catalytic activity."}, "mVEGFR2": {"molecular_target": "T2, mVEGFR2 (Mus musculus, UniProt P35918)", "T2 construct": "expressed in transfected cells; host or cells: HEK293", "T2 sequence (P35918 20-1345)": "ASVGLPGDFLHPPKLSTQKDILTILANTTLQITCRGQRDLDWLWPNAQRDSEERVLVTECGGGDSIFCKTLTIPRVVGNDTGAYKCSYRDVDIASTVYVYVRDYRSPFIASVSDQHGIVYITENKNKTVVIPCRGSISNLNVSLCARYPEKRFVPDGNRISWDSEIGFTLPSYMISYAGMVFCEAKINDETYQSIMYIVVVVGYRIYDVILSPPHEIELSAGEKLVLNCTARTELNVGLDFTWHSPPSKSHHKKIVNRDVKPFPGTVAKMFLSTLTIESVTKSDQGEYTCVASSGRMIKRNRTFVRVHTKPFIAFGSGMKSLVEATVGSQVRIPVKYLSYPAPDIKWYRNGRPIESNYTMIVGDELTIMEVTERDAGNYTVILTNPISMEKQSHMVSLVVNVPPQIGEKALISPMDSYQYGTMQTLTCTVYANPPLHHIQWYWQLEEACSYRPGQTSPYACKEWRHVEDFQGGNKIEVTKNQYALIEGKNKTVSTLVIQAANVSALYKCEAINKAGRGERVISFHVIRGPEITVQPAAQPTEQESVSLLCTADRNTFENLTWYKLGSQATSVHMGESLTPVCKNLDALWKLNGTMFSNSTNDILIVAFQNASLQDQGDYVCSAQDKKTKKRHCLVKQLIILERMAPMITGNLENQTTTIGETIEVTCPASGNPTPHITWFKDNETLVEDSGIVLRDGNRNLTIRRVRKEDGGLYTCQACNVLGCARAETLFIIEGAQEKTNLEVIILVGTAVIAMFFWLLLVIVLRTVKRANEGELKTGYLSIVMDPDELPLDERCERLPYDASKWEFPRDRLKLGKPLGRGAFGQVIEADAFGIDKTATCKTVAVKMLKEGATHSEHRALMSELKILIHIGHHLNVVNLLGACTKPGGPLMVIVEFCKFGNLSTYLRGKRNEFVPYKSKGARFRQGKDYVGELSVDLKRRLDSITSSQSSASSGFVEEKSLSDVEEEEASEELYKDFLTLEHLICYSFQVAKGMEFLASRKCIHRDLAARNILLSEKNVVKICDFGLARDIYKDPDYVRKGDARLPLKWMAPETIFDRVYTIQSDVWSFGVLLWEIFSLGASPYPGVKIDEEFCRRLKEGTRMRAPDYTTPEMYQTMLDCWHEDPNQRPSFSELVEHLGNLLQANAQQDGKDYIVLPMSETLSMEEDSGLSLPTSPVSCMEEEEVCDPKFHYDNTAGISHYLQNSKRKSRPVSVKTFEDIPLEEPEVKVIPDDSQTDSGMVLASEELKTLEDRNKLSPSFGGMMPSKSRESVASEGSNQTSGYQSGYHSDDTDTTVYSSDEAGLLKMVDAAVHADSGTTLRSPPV", "test": "Immunohistochemical staining of mVEGFR2 in HEK293 cells (cellular localization)", "type": "cell-based", "conditions": "10 μM, overnight treatment", "protocol": "To better understand the cellular mechanism of peptide inhibition, a preliminary experiment was performed in which cells were stained with an anti-VEGFR2 antibody to track the cellular localization."}, "EGFR family": {"tested_on": "EGFR family", "test": "EGF-induced ERK1/2 phosphorylation in HeLa cells (cross reactivity of VEGFR2 peptides)", "type": "cell-based, human", "conditions": "EGF 25 ng/ml", "protocol": "As a next step, to test the specificity of the VEGFR2 peptides, we tested their cross reactivity towards the EGFR family. Therefore, HeLa cells were treated with peptide B8 and B12 and subsequently stimulated with EGF (25ng/ml)."}, "S. aureus ATCC 27853": {"tested_on": "S. aureus ATCC 27853", "test": "Invasion assay: bacteria in infected HCT116 cell monolayers (CFU count)", "type": "cell-based", "conditions": "100 μg/ml, 90 minutes infection, 1 h treatment", "protocol": "In this assay HCT116 cell monolayers (a human colon tumor cell line) were cultured at the bottom of a microwell plate. The next day fresh S. aureus ATCC 27853 bacteria were added (approximately 10^6 CFU/ml) and a negative uninfected control included. After 90 minutes of infection different dilution of peptides were added and the cultures were incubated for another hour. As a positive control Gentamycin was used, given that it has a good intracellular activity. Each well was washed with pre-warmed physiological water to get rid of any extra-cellular bacteria, followed by 1% Triton treatment to release all entrapped bacteria from mammalian cells. The content of the well was serially diluted and plated on TSA agar plates for CFU count."}, "human erythrocytes": {"tested_on": "human erythrocytes", "type": "cell-based", "description": "The detergent Tween was used as a positive control, causing 100% lysis of RBCs."}, "Corynebacterium": {"tested_on": "Corynebacterium", "conditions": "peptides with purity of >95%", "method": "Bacteria were grown in a shaking incubator at 37° C. and 160rpm in 50 ml BHI , using individual colonies retrieved from a fresh overnight TSA-sheep blood plate. The cultures were grown to a density of approximately 1×10^8cells/ml and then diluted to 5×10^5 cells/ml in CAMHB (Mc Farland 0.5). Each well contained 100p.I (50p.I of peptide containing MHB plus 50 μl inoculum). The final cell density was 1×10^5 to 5×10^5/ml. After addition of the cell suspension, plates were incubated at 37° C. for 18 to 24 hours. The optical density at 590 nm (OD590) of each well was measured after 5 seconds of shaking the plate using Perkin Elmer spectrophotometer (1420 Multilabel Counter Vicotr 3). […] Each well, where no growth was observed, was also plated on TSA-sheep blood agar plates, incubated at 37° C. overnight and visually inspected.\nA microbroth dilution method was used with twofold serial dilutions in CAMHB (according to EMEA guidelines) was used for screening of peptide activity, with concentrations ranging from 0.3 μg/mIto 200 μg/ml."}, "Candida albicans SC5314": {"tested_on": "Candida albicans SC5314", "test": "In vitro mature C. albicans biofilm formation on polystyrene (XTT reduction assay)", "type": "cell-based", "conditions": "250 μM, 50 μM and 10 μM; peptide during adhesion only or during whole biofilm development; p<0.001", "protocol": "The initial screening and search for optimal Als3 candidate interferors was based on the C. albicans SC5314 adhesion assay on 96-well polystyrene plates upon administration of all the peptides at three different concentrations (250 μM, 50 μM and 10 μM). Based on the results obtained with this adhesion assay, we also tested the effect of peptides on mature biofilm development. The final election of the most optimal candidate interferor peptides was based on the results showing reduction in adhesion and mature biofilm formation caused by the lowest concentration of the peptide tested (10 μM or 2.5 μM).\nIn a next step, lower concentrations of peptide F9 (50 μM, 10 μM and 2.5 μM) were also tested. […] Both assays were performed in 96-well polystyrene plates and quantified by the XTT reduction assay (see material and methods section).\nIn vitro C. albicans biofilm was studied on three different types of biomaterials, namely flat bottom 96-well polystyrene plate (Greiner Bio-One, Germany), silicone (CS Hyde, USA) and polyurethane triple lumen intravenous catheters (2.4mm diameter) (Arrow International Reading, USA). […] After that, the biofilms were washed twice with 1×PBS and quantified.\nThe metabolic activity of Candida cells within in vitro biofilms was studied using the XTT reduction assay. […] The intensity of colorimetric change was measured by spectrophotometer (Spectra max Plus 384) at 490 nm. […]"}}, "note": "No end group written: not given here."}
{"substance": "(His)6~RVIIWSLGNR [Tango 2 peptide]", "values": [{"measurement": "ka1", "setting": "β-Gal [1]", "value": "2.744E+4"}, {"measurement": "ka1 (second value printed)", "setting": "β-Gal [1]", "value": 0.02359}, {"measurement": "ka3", "setting": "β-Gal [1]", "value": 0.005491}, {"measurement": "kd1", "setting": "β-Gal [1]", "value": 0.4123}, {"measurement": "kd2", "setting": "β-Gal [1]", "value": 0.02509}, {"measurement": "kd3", "setting": "β-Gal [1]", "value": 0.002654}, {"measurement": "enzymatic activity of β-galactosidase", "setting": "β-Gal [2]", "value": "complete inhibition of enzymatic activity"}]}
{"substance": "DLAVALWFDPPDLAVALWFD [B8]", "values": [{"measurement": "cellular localization of VEGFR2", "setting": "mVEGFR2", "value": "no longer present on the cell surface"}, {"measurement": "ERK1/2 phosphorylation after EGF stimulation", "setting": "EGFR family", "value": "do not inhibit ERK1/2 phosphorylation"}]}
{"substance": "RFFIGLSRRGSRLFNFLKR [Hit57A]", "values": [{"measurement": "numbers of bacteria in infected cell monolayers", "setting": "S. aureus ATCC 27853", "value": "effectively reduced the numbers of bacteria in infected cell monolayers"}, {"measurement": "hemolytic activity", "setting": "human erythrocytes", "value": "no significant hemolytic activity at clinically relevant concentrations"}, {"measurement": "MIC", "setting": "S. aureus", "value": 50, "unit": "µg/mL"}, {"measurement": "MIC in presence of 50% FBS", "setting": "S. aureus", "value": 100, "unit": "µg/mL"}, {"measurement": "MIC values against MRSA 326", "setting": "S. aureus", "value": 6, "unit": "µg/mL"}, {"measurement": "MIC values against Corynebacterium", "setting": "Corynebacterium", "value": "Not active"}]}
{"substance": "RNGIVIVATTR [E1]", "values": [{"measurement": "biofilm formation (metabolic activity compared to control)", "setting": "Candida albicans SC5314", "value": "significant reduction in biofilm formation"}]}
{"substance": "RRLFNFLKRGSRLFNFLKR [Hit24]", "values": [{"measurement": "MIC", "setting": "E. cloacae", "value": 25, "unit": "µg/mL"}, {"measurement": "MIC values against S.epidermidis ATCC 12228", "setting": "S. epidermidis", "value": 1.5, "unit": "µg/mL"}, {"measurement": "hemolytic activity", "setting": "human erythrocytes", "value": "no significant hemolytic activity at clinically relevant concentrations"}, {"measurement": "MIC values against S.aureus ATCC 29213", "setting": "S. aureus", "value": 12.5, "unit": "µg/mL"}]}
